Results from PMC6270026, “Antibacterial and Herbicidal Activity of Ring-Substituted 2-Hydroxynaphthalene-1-carboxanilides” (Molecules, 2013).
Converted amounts (≈) assume the structure as drawn. Read-outs that look alike come from different tables or passages of the source.

Legend:
[1] = test system: photosynthetic electron transport (PET) in spinach chloroplasts; experiment: Inhibition of photosynthetic electron transport (PET) in spinach chloroplasts; type: biochemical, Spinacia oleracea L.; conditions: DCPIP photoreduction
Protocol: Chloroplasts were prepared from spinach (Spinacia oleracea L.) according to Masarovicova and Kralova. The inhibition of photosynthetic electron transport (PET) in spinach chloroplasts was determined spectrophotometrically (Genesys 6, Thermo Electron Scientific Instruments, Madison, WI, USA), using an artificial electron acceptor 2,6-dichlorophenol-indophenol (DCPIP) according to Kralova et al., and the rate of photosynthetic electron transport was monitored as a photoreduction of DCPIP. The measurements were carried out in phosphate buffer (0.02 mol/L, pH 7.2) containing sucrose (0.4 mol/L), MgCl2 (0.005 mol/L) and NaCl (0.015 mol/L). The chlorophyll content was 30 mg/L in these experiments and the samples were irradiated (~100 W/m^2 with 10 cm distance) with a halogen lamp (250 W) using a 4 cm water filter to prevent warming of the samples (suspension temperature 22 °C). The studied compounds were dissolved in DMSO due to their limited water solubility. […] The inhibitory efficiency of the studied compounds was expressed by IC50 values, i.e., by molar concentration of the compounds causing 50% decrease in the oxygen evolution rate relative to the untreated control.

[2] = test system: Staphylococcus aureus ATCC 29213; experiment: In vitro antibacterial susceptibility testing (broth dilution MIC); type: cell-based; conditions: ATCC29213; Staphylococcus aureus ATCC 29213, 24 h, 37 °C
Protocol: (§1) The synthesized compounds were evaluated for in vitro antibacterial activity against representatives of multidrug-resistant bacteria, clinical isolates of methicillin-resistant Staphylococcus aureus (MRSA) 63718, SA 630 and SA 3202 that were obtained from the National Institute of Public Health, Prague, Czech Republic. Staphylococcus aureus ATCC 29213 was used as a reference and quality control strain. Ampicillin (Sigma-Aldrich) was used as the standard. Prior to testing, each strain was passaged onto nutrient agar (Oxoid, Hampshire, UK) with 5% of bovine blood, and bacterial inocula were prepared by suspending a small portion of bacterial colony in sterile phosphate buffered saline (pH 7.2–7.3). The cell density was adjusted to 0.5 McFarland units using a densitometer (Densi-La-Meter, LIAP, Riga, Latvia). The final inoculum was made by 1:20 dilution of the suspension with the Mueller-Hinton broth (MH broth). […] The final concentrations of the evaluated compounds ranging from 256 μg/mL to 0.008 μg/mL. The broth dilution micro-method modified according to NCCLS guidelines in MH broth was used to determine the minimum inhibitory concentration (MIC). Drug-free controls, sterility controls and controls consisted of MH broth and DMSO alone were included. The determination of results was performed visually after 24 h of static incubation in the darkness at 37 °C in an aerobic atmosphere. The MICs were defined as the lowest concentration of the compound at which no visible bacterial growth was observed.

[3] = test system: methicillin-resistant Staphylococcus aureus (MRSA) 63718; experiment: as above; type: cell-based; conditions: clinical isolate MRSA 63718, 24 h, 37 °C
Protocol: as §1

[4] = test system: methicillin-resistant Staphylococcus aureus SA 3202; experiment: as above; type: cell-based; conditions: MRSA, read-out: MIC MRSA 3202
Protocol: as §1

[5] = test system: methicillin-resistant Staphylococcus aureus SA 630; experiment: as above; type: cell-based; conditions: MRSA, clinical isolate SA 630, 24 h, 37 °C
Protocol: as §1

[6] = test system: M. kansasii DSM 44162; experiment: In vitro antimycobacterial evaluation (broth dilution MIC); type: cell-based; conditions: Mycobacterium kansasii, DSM44162, 168 h; M. kansasii DSM 44162, 7 days, 37 °C
[7] = test system: M. smegmatis ATCC 700084; experiment: as above; type: cell-based, Mycobacterium smegmatis; conditions: Mycolicibacterium smegmatis, ATCC700084, 72 h; M. smegmatis ATCC 700084, 3 days, 37 °C
[8] = test system: Mycobacterium avium subsp. paratuberculosis (CIT03); experiment: In vitro antimycobacterial evaluation (alamarBlue MIC); type: cell-based; conditions: 264 h, M. avium paratuberculosis CIT03, 11 days, 37 °C
Protocol: A well characterised clinical isolate of Mycobacterium avium subsp. paratuberculosis (CIT03) was grown in Middlebrook broth (MB), supplemented with Oleic-Albumin-Dextrose-Catalase supplement (OADC, Becton, Dickinson & Comp., Franklin Lakes, NJ, USA) and mycobactin J (2 µg/mL). Identification of this isolate was performed using biochemical and molecular protocols. At log phase growth, a culture sample (10 mL) was centrifuged at 15,000 rpm/20 min using a bench top centrifuge (Model CR 4-12, Jouan Inc., Winchester, VA, USA). Following removal of the supernatant, the pellet was washed in fresh Middlebrook 7H9GC broth and re-suspended in fresh supplemented MB (10 mL). The turbidity was adjusted to match McFarland standard No. 1 (3 × 10^8 cfu) with MB broth. A further 1:20 dilution of the culture was then performed in MB broth. The antimicrobial susceptibility of the mycobacterial species was investigated in a 96-well plate format. In these experiments, sterile deionised water (300 µL) was added to all outer-perimeter wells of the plates to minimize evaporation of the medium in the test wells during incubation. Each evaluated compound (100 µL) was incubated with each of the mycobacterial species (100 µL). Dilutions of each compound were prepared in duplicate. For all synthesized compounds, final concentrations ranged from 1,000 µg/mL to 8 µg/mL. All compounds were prepared in DMSO and subsequent dilutions were made in supplemented MB. The plates were sealed with parafilm and incubated at 37 °C, for 11 days in the case of M. avium paratuberculosis. Following incubation, a 10% addition of alamarBlue (AbD Serotec, Kidlington, UK) was mixed into each well and readings at 570 nm and 600 nm were taken, initially for background subtraction and subsequently after 24 h re-incubation. The background subtraction is necessary for strongly coloured compounds, where the colour may interfere with the interpretation of any colour change. For non-interfering compounds, a blue colour in the well was interpreted as an absence of growth and a pink colour was scored as growth. The minimum inhibitory concentrations (MICs) were initially defined as the lowest concentration which prevented a visual colour change from blue to pink.
The MICs were defined as the lowest concentration of the compound at which no visible bacterial growth was observed. The MIC value is routinely and widely used in bacterial assays and is a standard detection limit according to the Clinical and Laboratory Standards Institute (CLSI). Isoniazid (Sigma-Aldrich) was used as reference antimycobacterial drug.

[9] = clinical isolate SA 3202, 24 h, 37 °C

Structure (SMILES)	IC50 [1] [µM]	MIC [2] [µM]	MIC [3] [µM]	MIC ([4]; 24 h) [µM]	MIC [5] [µM]	MIC [6] [µM]	MIC [7] [µM]	MIC [8] [µM]	MIC [4, 9] [µM]
O=C(Nc1ccccc1Cl)c1c(O)ccc2ccccc12 [Compound 5a, N-(2-chlorophenyl)-2-hydroxynaphthalene-1-carboxamide]	49.6	215 (≈ 64 µg/mL)	860 (≈ 256 µg/mL)	> 860	> 860	107 (≈ 31.9 µg/mL)	107 (≈ 31.9 µg/mL)	202 (≈ 60.1 µg/mL)	–
O=C(Nc1ccccc1C(F)(F)F)c1c(O)ccc2ccccc12 [Compound 7a, 2-Hydroxy-N-(2-trifluoromethylphenyl)naphthalene-1-carboxamide]	153	97.1 (≈ 32.2 µg/mL)	193 (≈ 63.9 µg/mL)	–	97.1 (≈ 32.2 µg/mL)	96.6 (≈ 32 µg/mL)	386 (≈ 128 µg/mL)	377 (≈ 125 µg/mL)	193 (≈ 63.9 µg/mL)
O=C(Nc1cccc(C(F)(F)F)c1)c1c(O)ccc2ccccc12 [Compound 7b, 2-Hydroxy-N-(3-trifluoromethylphenyl)naphthalene-1-carboxamide]	45.6	> 748	187 (≈ 62 µg/mL)	–	374 (≈ 124 µg/mL)	93.5 (≈ 31 µg/mL)	> 748	731 (≈ 242 µg/mL)	94 (≈ 31.1 µg/mL)
